Reference: US8247394B2 (Cempra Pharmaceuticals Inc., priority 2010, dated 2012)
In brackets after ≈: the same amount, converted by molar mass. Like-named read-outs stand apart in the source and are kept apart here.

What was measured:
N. gonorrhoeae = experiment: Reference agar dilution susceptibility testing (CLSI M07-A8) of N. gonorrhoeae clinical isolates; format: cell-based, Neisseria gonorrhoeae; conditions: for % by category, R (resistant); resistance rate / % by category, S (susceptible): CLSI criteria, 35 strains
Method: Thirty-five clinical isolates of N. gonorrhoeae collected in the United States (USA), Asia and European medical centers since 2005 were tested using reference agar dilution methods per Clinical and Laboratory Standards Institute (CLSI) M07-A8 (Clinical and Laboratory Standards Institute. 2009. M07-A8, Methods for dilution antimicrobial susceptibility tests for bacteria that grow aerobically; approved standard—eighth edition. Wayne, Pa.: CLSI) and M100-S20 documents (Clinical and Laboratory Standards Institute. 2010. M100-S20, Performance standards for antimicrobial susceptibility testing, 20th informational supplement. Wayne, Pa.: CLSI). […] Quality control (QC) ranges and interpretive criteria for comparator compounds were as published by CLSI (Clinical and Laboratory Standards Institute. 2010. M100-S20, Performance standards for antimicrobial susceptibility testing, 20th informational supplement. Wayne, Pa.: CLSI).

[1] = blood; cited from earlier work
C. trachomatis = experiment: In vitro susceptibility testing of C. trachomatis in cell culture using HEp-2 cells (MIC/MBC); format: cell-based, Chlamydia trachomatis; conditions: for MBC / MIC90 / MIC: Chlamydia trachomatis
Method: Chlamydia isolates: 10 isolates of C. trachomatis in order to determine the MIC90 and MBC90 for each antibiotic.
C. trachomatis: 10 isolates of C. trachomatis, including standard isolates from the ATCC (E-BOUR, F-IC-CAL3, C-HAR32, J-UW-36, L2434, D-UW-57kx, B-HAR-36) and recent clinical isolates N18 (cervical), N19 (cervical), 7015 (infant eye).
In vitro susceptibility testing: Susceptibility testing of C. trachomatis was performed in cell culture using HEp-2 cells grown in 96-well microtiter plates. Each well was inoculated with 0.1 ml of the test strain diluted to yield 10^3 to 10^4 IFU/per ml, centrifuged at 1,700×g for 1 hr and incubated at 35° C. for 1 hr. Wells were then aspirated and overlaid with 0.2 ml of medium containing 1 μg of cycloheximide per ml and serial two fold dilutions of the test drug. Duplicate plates were inoculated. After incubation at 35° C. for 48-72 hrs, cultures were fixed and stained for inclusions with fluorescein-conjugated antibody to the lipopolysaccharide genus antigen ([…]™, Kallestad Diagnostics, Chaska, Minn.). The minimal inhibitory concentration (MIC) was the lowest antibiotic concentration at which no inclusions are seen. The minimal bactericidal concentration (MBC) was determined by aspirating the antibiotic containing medium, washing wells twice with phosphate buffered saline and adding antibiotic-free medium. Cultures were frozen at −70° C., thawed, passed onto new cells, incubated for 72 hrs then fixed and stained as above. The MBC was the lowest antibiotic concentration that results in no inclusions after passage. All tests were run in triplicate.
Ten isolates of C. trachomatis including standard isolates from the ATCC (E-BOUR, F-IC-CAL3, C-HAR32, J-UW-36, L2434, D-UW-57kx, B-HAR-36) and recent clinical isolates N18 (cervical), N19 (cervical), 7015 (infant eye) were selected for study. Susceptibility testing was performed in cell culture using HEp-2 cells (Roblin et. al. Antimicrob. Agents Chemother. 42:194-196 (1998)) at State University of New York, Downstate Medical Center (Brooklyn, N.Y., USA).

[2] = number of isolates among 35 strains
[3] = 10 strains of C. trachomatis, read-out: MBC90
[4] = Neisseria gonorrhoeae, 35 N. gonorrhoeae strains, read-out: MIC50

CO/N=C(\C(=O)N[C@@H]1C(=O)N2C(C(=O)O)=C(CSc3nc(=O)c(=O)[nH]n3C)CS[C@H]12)c1csc(N)n1 [Ceftriaxone, ceftriaxone]
% by category, R (resistant); resistance rate (N. gonorrhoeae): 0.0% | % by category, S (susceptible) (N. gonorrhoeae): 100.0/— % | Occurrences at MIC 0.015 μg/ml (N. gonorrhoeae; [2]): 6 | Occurrences at MIC 0.03 μg/ml (N. gonorrhoeae; [2]): 6 | Occurrences at MIC 0.06 μg/ml (N. gonorrhoeae; [2]): 3 | Occurrences at MIC 0.12 μg/ml (N. gonorrhoeae; [2]): 2 | Occurrences at MIC ≦0.008 μg/ml (N. gonorrhoeae; [2]): 18

CC(=O)O[C@H]1C[C@@]2(C)[C@@H](C[C@@H](O)[C@H]3[C@@]4(C)CC[C@@H](O)[C@@H](C)[C@@H]4CC[C@@]32C)/C1=C(\CCC=C(C)C)C(=O)O [Fusidic acid]
protein binding [1]: 95-97% | MBC Range (C. trachomatis; 10 strains): 0.12 to 0.5 µg/mL | MIC 90% (C. trachomatis; 10 strains): 0.5 µg/mL (≈ 0.968 µM) | MIC Range (C. trachomatis; 10 strains): 0.12 to 0.5 µg/mL | MIC range (C. trachomatis; 10 strains): 0.12 to 0.5 µg/mL | MBC (C. trachomatis; 10 strains, read-out: MBC 90%): 0.5 µg/mL (≈ 0.968 µM) | MIC90 (C. trachomatis; 10 strains of C. trachomatis): 0.5 µg/mL (≈ 0.968 µM) | MBC (C. trachomatis; [3]): 0.5 µg/mL (≈ 0.968 µM) | Occurrences at MIC 0.25 μg/ml (N. gonorrhoeae): 12 | Occurrences at MIC 0.5 μg/ml (N. gonorrhoeae): 17 | Occurrences at MIC 1 μg/ml (N. gonorrhoeae): 5 | Occurrences at MIC 2 μg/ml (N. gonorrhoeae): 1 | MIC90 (N. gonorrhoeae; Neisseria gonorrhoeae, 35 N. gonorrhoeae strains): 1 µg/mL (≈ 1.94 µM) | MIC50 (N. gonorrhoeae; [4]): 0.5 µg/mL (≈ 0.968 µM) | Concentration at which active against all strains tested (N. gonorrhoeae; all N. gonorrhoeae strains tested): ≤ 2 µg/mL

CC[C@H]1OC(=O)[C@H](C)C(=O)[C@H](C)[C@@H](O[C@@H]2O[C@H](C)C[C@H](N(C)C)[C@H]2O)[C@](C)(OC)C[C@@H](C)C(=O)[C@H](C)[C@H]2N(CCCCn3cnc(-c4cccnc4)c3)C(=O)O[C@]12C [Telithromycin, telithromycin]
MBC Range (C. trachomatis; 10 strains): 0.015 to 0.25 µg/mL | MIC 90% (C. trachomatis; 10 strains): 0.06 µg/mL (≈ 0.0739 µM) | MIC Range (C. trachomatis; 10 strains): 0.015 to 0.25 µg/mL | MBC (C. trachomatis; 10 strains, read-out: MBC 90%): 0.06 µg/mL (≈ 0.0739 µM) | MIC90 (C. trachomatis; 10 strains of C. trachomatis): 0.06 µg/mL (≈ 0.0739 µM)

CC(=O)O[C@H]1C[C@@]2(C)[C@@H](C[C@@H](O)[C@H]3[C@@]4(C)CC[C@@H](O)[C@@H](C)[C@@H]4CC[C@@]32C)/C1=C(\CCC=C(C)C)C(=O)[O-].[Na+] [CEM 102, Sodium fusidate]
MIC (C. trachomatis; strain 7015): 0.5 µg/mL | MBC (C. trachomatis; strain 7015, read-out: MBC): 0.5 µg/mL | MIC (C. trachomatis; strain Ct D): 0.5 µg/mL | MBC (C. trachomatis; strain Ct D, read-out: MBC): 0.5 µg/mL | MIC (C. trachomatis; strain Ct E): 0.5 µg/mL | MBC (C. trachomatis; strain Ct E, read-out: MBC): 0.5 µg/mL | MIC (C. trachomatis; strain Ct F): 0.5 µg/mL | MBC (C. trachomatis; strain Ct F, read-out: MBC): 0.5 µg/mL | MIC (C. trachomatis; strain Ct H): 0.5 µg/mL | MBC (C. trachomatis; strain Ct H, read-out: MBC): 0.5 µg/mL | MIC (C. trachomatis; strain Ct I): 0.5 µg/mL | MBC (C. trachomatis; strain Ct I, read-out: MBC): 0.5 µg/mL | MIC (C. trachomatis; strain Ct J): 0.5 µg/mL | MBC (C. trachomatis; strain Ct J, read-out: MBC): 0.5 µg/mL | MIC (C. trachomatis; strain L2): 0.25 µg/mL | MBC (C. trachomatis; strain L2, read-out: MBC): 0.25 µg/mL | MIC (C. trachomatis; strain N18): 0.25 µg/mL | MBC (C. trachomatis; strain N18, read-out: MBC): 0.25 µg/mL | MIC (C. trachomatis; strain N19): 0.125 µg/mL | MBC (C. trachomatis; strain N19, read-out: MBC): 0.125 µg/mL | MIC90 (C. trachomatis; 10 strains of C. trachomatis): 0.5 µg/mL | MBC (C. trachomatis; [3]): 0.5 µg/mL

CN(C)[C@@H]1C(O)=C(C(N)=O)C(=O)[C@@]2(O)C(O)=C3C(=O)c4c(O)cccc4[C@@](C)(O)[C@H]3C[C@@H]12 [Tetracycline, tetracycline]
% by category, R (resistant); resistance rate (N. gonorrhoeae): 34.3% | % by category, S (susceptible) (N. gonorrhoeae): 22.9% | MIC50 (N. gonorrhoeae; [4]): 1 µg/mL (≈ 2.25 µM) | Occurrences at MIC 0.12 μg/ml (N. gonorrhoeae; [2]): 6 | Occurrences at MIC 0.25 μg/ml (N. gonorrhoeae; [2]): 2 | Occurrences at MIC 0.5 μg/ml (N. gonorrhoeae; [2]): 8 | Occurrences at MIC 1 μg/ml (N. gonorrhoeae; [2]): 7 | Occurrences at MIC 2 μg/ml (N. gonorrhoeae; [2]): 7 | Occurrences at MIC 4 μg/ml (N. gonorrhoeae; [2]): 1 | Occurrences at MIC >4 μg/ml (N. gonorrhoeae; [2]): 4

C[C@H]1c2cccc(O)c2C(=O)C2=C(O)[C@]3(O)C(=O)C(C(N)=O)=C(O)[C@@H](N(C)C)[C@@H]3[C@@H](O)[C@@H]21 [Doxycycline, doxycycline]
MBC Range (C. trachomatis; 10 strains): 0.015 to 0.06 µg/mL | MIC 90% (C. trachomatis; 10 strains): 0.06 µg/mL (≈ 0.135 µM) | MIC Range (C. trachomatis; 10 strains): 0.015 to 0.06 µg/mL | MBC (C. trachomatis; 10 strains, read-out: MBC 90%): 0.06 µg/mL (≈ 0.135 µM) | MIC90 (C. trachomatis; 10 strains of C. trachomatis): 0.06 µg/mL (≈ 0.135 µM)

CC[C@H]1OC(=O)[C@H](C)[C@@H](O[C@H]2C[C@@](C)(OC)[C@@H](O)[C@H](C)O2)[C@H](C)[C@@H](O[C@@H]2O[C@H](C)C[C@H](N(C)C)[C@H]2O)[C@](C)(OC)C[C@@H](C)C(=O)[C@H](C)[C@@H](O)[C@]1(C)O [Clarithromycin, clarithromycin]
MBC Range (C. trachomatis; 10 strains): 0.015 to 0.12 µg/mL | MIC 90% (C. trachomatis; 10 strains): 0.06 µg/mL (≈ 0.0802 µM) | MIC Range (C. trachomatis; 10 strains): 0.015 to 0.12 µg/mL | MBC (C. trachomatis; 10 strains, read-out: MBC 90%): 0.06 µg/mL (≈ 0.0802 µM) | MIC90 (C. trachomatis; 10 strains of C. trachomatis): 0.06 µg/mL (≈ 0.0802 µM)

penicillin
MIC50 (N. gonorrhoeae; 35 N. gonorrhoeae strains): 1 µg/mL | % by category, R (resistant); resistance rate (N. gonorrhoeae): 45.7% | % by category, S (susceptible) (N. gonorrhoeae): 22.9% | Occurrences at MIC 0.015 μg/ml (N. gonorrhoeae; [2]): 1 | Occurrences at MIC 0.03 μg/ml (N. gonorrhoeae; [2]): 4 | Occurrences at MIC 0.06 μg/ml (N. gonorrhoeae; [2]): 3 | Occurrences at MIC 0.25 μg/ml (N. gonorrhoeae; [2]): 2 | Occurrences at MIC 0.5 μg/ml (N. gonorrhoeae; [2]): 4 | Occurrences at MIC 1 μg/ml (N. gonorrhoeae; [2]): 5 | Occurrences at MIC 2 μg/ml (N. gonorrhoeae; [2]): 6 | Occurrences at MIC 4 μg/ml (N. gonorrhoeae; [2]): 4 | Occurrences at MIC >4 μg/ml (N. gonorrhoeae; [2]): 6

CC[C@H]1OC(=O)[C@H](C)[C@@H](O[C@H]2C[C@@](C)(OC)[C@@H](O)[C@H](C)O2)[C@H](C)[C@@H](O[C@@H]2O[C@H](C)C[C@H](N(C)C)[C@H]2O)[C@](C)(O)C[C@@H](C)CN(C)[C@H](C)[C@@H](O)[C@]1(C)O [Azithromycin, azithromycin]
MBC Range (C. trachomatis; 10 strains): 0.015 to 0.12 µg/mL | MIC 90% (C. trachomatis; 10 strains): 0.12 µg/mL (≈ 0.16 µM) | MIC Range (C. trachomatis; 10 strains): 0.015 to 0.12 µg/mL | MBC (C. trachomatis; 10 strains, read-out: MBC 90%): 0.12 µg/mL (≈ 0.16 µM) | MIC90 (C. trachomatis; 10 strains of C. trachomatis): 0.12 µg/mL (≈ 0.16 µM) | % by category, R (resistant); resistance rate (N. gonorrhoeae): 0.0% | MIC50 (N. gonorrhoeae; [4]): 0.25 µg/mL (≈ 0.334 µM) | Occurrences at MIC 0.06 μg/ml (N. gonorrhoeae; [2]): 1 | Occurrences at MIC 0.12 μg/ml (N. gonorrhoeae; [2]): 15 | Occurrences at MIC 0.25 μg/ml (N. gonorrhoeae; [2]): 12 | Occurrences at MIC 0.5 μg/ml (N. gonorrhoeae; [2]): 5 | Occurrences at MIC 1 μg/ml (N. gonorrhoeae; [2]): 1 | Occurrences at MIC 2 μg/ml (N. gonorrhoeae; [2]): 1
